From patent US7329652B2, “Diaminotriazole compounds useful as protein kinase inhibitors” (Vertex Pharamaceuticals Incorporated, priority 2004, dated 2008)

Experiments:
JAK-2 enzyme = JAK-2 enzyme (Homo sapiens, UniProt O60674); assay: JAK2 inhibition assay (radiometric 33P filter assay); format: biochemical; settings: 15 μM poly(Glu)4Tyr, 12 μM ATP; read-out: JAK2 inhibition data (Ki)
Description: (§1) Compounds were screened for their ability to inhibit JAK using the assay shown below. Reactions were carried out in a kinase buffer containing 100 mM HEPES (pH 7.4), 1 mM DTT, 10 mM MgCl2, 25 mM NaCl, and 0.01% BSA.
(§2) Substrate concentrations in the assay were 5 μM ATP (200 uCi/μmole ATP) and 1 μM poly(Glu)4Tyr. Reactions were carried out at 25° C. and 1 nM JAK3.
(§3) To each well of a 96 well polycarbonate plate was added 1.5 μl of a candidate JAK3 inhibitor along with 50 μl of kinase buffer containing 2 μM poly(Glu)4Tyr and 10 μM ATP. This was then mixed and 50 μl of kinase buffer containing 2 nM JAK3 enzyme was added to start the reaction. After 20 minutes at room temperature (25° C.), the reaction was stopped with 50 μl of 20% trichloroacetic acid (TCA) that also contained 0.4 mM ATP. The entire contents of each well were then transferred to a 96 well glass fiber filter plate using a TomTek Cell Harvester. After washing, 60 μl of scintillation fluid was added and ^33P incorporation detected on a Perkin Elmer TopCount.
The assays were as described above in Example 25 except that JAK-2 enzyme was used, the final poly(Glu)4Tyr concentration was 15 μM, and final ATP concentration was 12 μM.

JAK3 = biological target: T1, JAK3 (Homo sapiens, UniProt P52333); assay: JAK3 inhibition assay (radiometric 33P filter assay); format: biochemical; settings: 1 μM poly(Glu)4Tyr, 5 μM ATP, 1 nM JAK3, 25° C.; read-out: JAK3 inhibition data (Ki)
T1 sequence (P52333 1-1124): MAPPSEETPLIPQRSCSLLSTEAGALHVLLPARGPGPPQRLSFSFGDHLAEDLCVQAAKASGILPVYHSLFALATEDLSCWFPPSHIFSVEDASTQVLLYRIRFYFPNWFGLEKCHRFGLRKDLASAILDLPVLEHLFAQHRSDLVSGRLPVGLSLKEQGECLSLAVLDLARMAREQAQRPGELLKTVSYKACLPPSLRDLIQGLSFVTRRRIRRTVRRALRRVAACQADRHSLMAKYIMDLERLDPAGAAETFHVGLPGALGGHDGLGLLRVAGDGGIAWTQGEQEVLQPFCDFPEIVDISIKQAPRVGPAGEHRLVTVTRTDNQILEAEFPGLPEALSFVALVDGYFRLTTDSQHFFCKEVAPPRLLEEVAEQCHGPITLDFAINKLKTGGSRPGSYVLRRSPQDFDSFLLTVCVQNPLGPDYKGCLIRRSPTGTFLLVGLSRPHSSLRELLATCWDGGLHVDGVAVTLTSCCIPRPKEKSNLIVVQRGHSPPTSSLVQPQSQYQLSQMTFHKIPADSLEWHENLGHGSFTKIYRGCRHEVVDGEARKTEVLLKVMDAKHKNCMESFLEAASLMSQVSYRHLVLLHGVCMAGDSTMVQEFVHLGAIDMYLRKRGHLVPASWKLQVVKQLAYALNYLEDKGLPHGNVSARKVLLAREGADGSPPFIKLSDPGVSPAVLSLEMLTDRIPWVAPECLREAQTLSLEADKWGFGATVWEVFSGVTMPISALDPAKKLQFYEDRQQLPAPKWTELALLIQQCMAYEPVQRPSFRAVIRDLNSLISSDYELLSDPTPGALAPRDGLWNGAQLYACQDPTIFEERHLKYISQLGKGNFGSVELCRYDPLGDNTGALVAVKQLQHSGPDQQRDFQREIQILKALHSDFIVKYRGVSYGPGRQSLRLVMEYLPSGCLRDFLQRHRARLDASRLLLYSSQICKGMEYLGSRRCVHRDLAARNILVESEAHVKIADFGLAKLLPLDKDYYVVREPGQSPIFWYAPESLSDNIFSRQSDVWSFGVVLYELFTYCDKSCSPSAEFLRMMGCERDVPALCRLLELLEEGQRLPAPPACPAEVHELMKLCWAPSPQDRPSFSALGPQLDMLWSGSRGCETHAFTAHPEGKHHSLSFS
Description: as §1, §2, §3

Sequence of JAK-2 enzyme (O60674 whole entry, species assumed): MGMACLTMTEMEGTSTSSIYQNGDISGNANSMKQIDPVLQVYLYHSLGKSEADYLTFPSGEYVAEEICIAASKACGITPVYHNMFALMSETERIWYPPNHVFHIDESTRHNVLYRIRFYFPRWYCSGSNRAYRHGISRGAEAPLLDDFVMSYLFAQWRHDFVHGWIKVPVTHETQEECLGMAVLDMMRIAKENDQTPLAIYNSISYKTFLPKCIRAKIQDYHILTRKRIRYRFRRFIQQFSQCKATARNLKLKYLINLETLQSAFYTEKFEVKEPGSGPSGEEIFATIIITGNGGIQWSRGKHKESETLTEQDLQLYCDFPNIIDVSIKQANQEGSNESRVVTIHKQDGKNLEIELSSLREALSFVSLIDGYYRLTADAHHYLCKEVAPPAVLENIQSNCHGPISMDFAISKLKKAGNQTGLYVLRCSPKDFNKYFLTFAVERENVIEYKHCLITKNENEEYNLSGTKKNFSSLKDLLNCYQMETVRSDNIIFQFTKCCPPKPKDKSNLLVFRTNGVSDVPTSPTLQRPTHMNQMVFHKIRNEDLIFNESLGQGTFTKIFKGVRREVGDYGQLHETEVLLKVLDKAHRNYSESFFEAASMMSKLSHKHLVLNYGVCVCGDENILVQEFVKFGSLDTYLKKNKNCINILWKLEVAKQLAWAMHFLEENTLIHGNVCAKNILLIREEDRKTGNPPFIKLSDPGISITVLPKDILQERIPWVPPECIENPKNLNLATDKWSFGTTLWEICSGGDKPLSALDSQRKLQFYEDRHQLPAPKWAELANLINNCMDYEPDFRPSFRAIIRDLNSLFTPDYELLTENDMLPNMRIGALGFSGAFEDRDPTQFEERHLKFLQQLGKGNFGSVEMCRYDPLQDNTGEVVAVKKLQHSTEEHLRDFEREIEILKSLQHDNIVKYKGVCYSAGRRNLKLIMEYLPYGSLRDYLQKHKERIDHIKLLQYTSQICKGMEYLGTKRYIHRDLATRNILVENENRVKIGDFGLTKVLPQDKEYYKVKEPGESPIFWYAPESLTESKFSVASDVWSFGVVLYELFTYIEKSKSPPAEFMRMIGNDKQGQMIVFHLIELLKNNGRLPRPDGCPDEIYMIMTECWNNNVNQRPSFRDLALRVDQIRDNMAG

| Ki (JAK-2 enzyme) [nM] | Ki (JAK3) [nM] | SMILES |
| --- | --- | --- |
| 50 to 500 | < 50 | CC(=O)N1CCCN(c2cc(-n3nc(Nc4ccc(N5CCOCC5)cc4)nc3N)ccn2)CC1 [Compound 1] |
| < 50 | < 50 | CC(=O)N1CCCN(c2cc(-n3nc(Nc4ccc(N5CCOCC5)cc4)nc3N)ncn2)CC1 [Compound 2] |
| < 50 | < 50 | Nc1nc(Nc2ccc(N3CCOCC3)cc2)nn1-c1cc(N2CCNC(=O)CC2)ncn1 [Compound 3] |
| < 50 | < 50 | COCC(=O)N1CCCN(c2cc(-n3nc(Nc4ccc(N5CCOCC5)cc4)nc3N)ncn2)CC1 [Compound 5] |
| < 50 | < 50 | CC(=O)CC(=O)N1CCCN(c2cc(-n3nc(Nc4ccc(N5CCOCC5)cc4)nc3N)ncn2)CC1 [Compound 6] |
| < 50 | < 50 | CS(=O)(=O)N1CCCN(c2cc(-n3nc(Nc4ccc(N5CCOCC5)cc4)nc3N)ncn2)CC1 [Compound 7] |
| < 50 | < 50 | COC(=O)N1CCCN(c2cc(-n3nc(Nc4ccc(N5CCOCC5)cc4)nc3N)ncn2)CC1 [Compound 8] |
| < 50 | < 50 | Nc1nc(Nc2ccc(N3CCOCC3)cc2)nn1-c1cc(N2CCCN(C(=O)CC(F)(F)F)CC2)ncn1 [Compound 9] |
| < 50 | < 50 | CC(=O)N1CCCN(c2cc(-n3nc(Nc4ccc(N(C)C)cc4)nc3N)ncn2)CC1 [Compound 10] |
| < 50 | < 50 | CC(=O)Nc1ccc(Nc2nc(N)n(-c3cc(N4CCCN(C(C)=O)CC4)ncn3)n2)cc1 [Compound 11] |
| < 50 | < 50 | CCN(CC)c1ccc(Nc2nc(N)n(-c3cc(N4CCCN(C(C)=O)CC4)ncn3)n2)cc1 [Compound 12] |
| < 50 | < 50 | CC(=O)N1CCCN(c2cc(-n3nc(Nc4ccc(N5CCCCC5)cc4)nc3N)ncn2)CC1 [Compound 13] |
| 50 to 500 | 50 to 500 | Nc1nc(Nc2ccc(N3CCOCC3)cc2)nn1-c1ccnc(N2CCCOCC2)c1 [Compound 14] |
| < 50 | < 50 | Nc1nc(Nc2ccc(N3CCOCC3)cc2)nn1-c1cc(N2CCCCCC2)ncn1 [Compound 15] |
| < 50 | < 50 | CC(=O)N1[C@H](C)CN(c2cc(-n3nc(Nc4ccc(N5CCOCC5)cc4)nc3N)ncn2)C[C@@H]1C [Compound 16] |
| < 50 | < 50 | CC(=O)N1[C@H](C)CN(c2cc(-n3nc(Nc4ccc(N5CCOCC5)cc4)nc3N)ccn2)C[C@@H]1C [Compound 17] |
| < 50 | < 50 | Nc1nc(Nc2ccc(N3CCOCC3)cc2)nn1-c1ccnc(N2CC3CCC(CC3)C2)c1 [Compound 18] |
| < 50 | < 50 | Nc1nc(Nc2ccc(N3CCOCC3)cc2)nn1-c1ccnc(N2CCCCCC2)c1 [Compound 19] |
| < 50 | < 50 | CC(=O)N1CCCN(c2cc(-n3nc(Nc4ccc(N)cc4)nc3N)ncn2)CC1 [Compound 20] |
| < 50 | < 50 | CC(=O)N1CCCN(c2cc(-n3nc(Nc4ccc(NC(=O)OC(C)(C)C)cc4)nc3N)ncn2)CC1 [Compound 21] |
| < 50 | < 50 | Nc1nc(Nc2ccc(N3CCOCC3)cc2)nn1-c1cc(N2CCN3C(=O)CC[C@H]3C2)ncn1 [Compound 22] |
| < 50 | < 50 | Nc1nc(Nc2ccc(N3CCOCC3)cc2)nn1-c1cc(N2CCN3C(=O)CC[C@@H]3C2)ncn1 [Compound 23] |

| Ki (JAK-2 enzyme) [nM] | Ki (JAK3) [nM] | SMILES |
| --- | --- | --- |
| < 50 | < 50 | CC(=O)N1CCCN(c2cc(-n3nc(Nc4ccc(NC(=O)C5CCC(C)CC5)cc4)nc3N)ncn2)CC1 (stereo not drawn) [Compound 24] |
| 50 to 500 | 50 to 500 | CCCC1CCC(C(=O)Nc2ccc(Nc3nc(N)n(-c4cc(N5CCCN(C(C)=O)CC5)ncn4)n3)cc2)CC1 (stereo not drawn) [Compound 25] |
| < 50 | < 50 | CC(=O)N1CCCN(c2cc(-n3nc(Nc4ccc(NC(=O)C5CCOCC5)cc4)nc3N)ncn2)CC1 [Compound 26] |
| < 50 | < 50 | CC(=O)N1CCCN(c2cc(-n3nc(Nc4ccc(NC(=O)c5cccnc5)cc4)nc3N)ncn2)CC1 [Compound 27] |
| < 50 | < 50 | CC(=O)N1CCCN(c2cc(-n3nc(Nc4ccc(NC(=O)c5ccncc5)cc4)nc3N)ncn2)CC1 [Compound 28] |
| < 50 | < 50 | CC(=O)N1CCCN(c2cc(-n3nc(Nc4ccc(NC(=O)c5ccoc5)cc4)nc3N)ncn2)CC1 [Compound 29] |
| < 50 | < 50 | CC(=O)N1CCCN(c2cc(-n3nc(Nc4ccc(NC(=O)c5ccco5)cc4)nc3N)ncn2)CC1 [Compound 30] |
| < 50 | < 50 | COC1CCC(C(=O)Nc2ccc(Nc3nc(N)n(-c4cc(N5CCCN(C(C)=O)CC5)ncn4)n3)cc2)CC1 (stereo not drawn) [Compound 31] |
| < 50 | < 50 | COC1CCCC(C(=O)Nc2ccc(Nc3nc(N)n(-c4cc(N5CCCN(C(C)=O)CC5)ncn4)n3)cc2)C1 (stereo not drawn) [Compound 32] |
| < 50 | < 50 | CC(=O)N1CCCN(c2cc(-n3nc(Nc4ccc(N5C[C@@H](C)O[C@@H](C)C5)cc4)nc3N)ncn2)CC1 [Compound 33] |
| < 50 | < 50 | CC(=O)N1CCCN(c2cc(-n3nc(Nc4ccc(N5CCN(C(=O)OC(C)(C)C)CC5)cc4)nc3N)ncn2)CC1 [Compound 34] |
| < 50 | < 50 | CC(=O)Nc1ccc(Nc2nc(N)n(-c3ccnc(N4C[C@@H](C)N(C(C)=O)[C@@H](C)C4)c3)n2)cc1 [Compound 35, N-(4-{1-[2-(4-Acetyl-3,5-dimethyl-piperazin-1-yl)-pyridin-4-yl]-5-amino-1H-[1,2,4]triazol-3-ylamino}-phenyl)-acetamide] |
| < 50 | < 50 | CC(=O)N1CCCN(c2cc(-n3nc(Nc4ccc(N5CCN(C(=O)C(C)(C)C)CC5)cc4)nc3N)ncn2)CC1 [Compound 36] |
| < 50 | < 50 | CCCC(=O)N1CCN(c2ccc(Nc3nc(N)n(-c4cc(N5CCCN(C(C)=O)CC5)ncn4)n3)cc2)CC1 [Compound 37] |
| < 50 | < 50 | CC(=O)N1CCCN(c2cc(-n3nc(Nc4ccc(N5CCN(C(=O)CC(C)C)CC5)cc4)nc3N)ncn2)CC1 [Compound 38] |
| < 50 | < 50 | CC(=O)N1CCCN(c2cc(-n3nc(Nc4ccc(N5CCN(C(=O)C6CC6)CC5)cc4)nc3N)ncn2)CC1 [Compound 39] |
| < 50 | < 50 | CC(=O)N1CCCN(c2cc(-n3nc(Nc4ccc(N5CCN(C(=O)C6CCC6)CC5)cc4)nc3N)ncn2)CC1 [Compound 40] |
| < 50 | < 50 | CC(=O)N1CCCN(c2cc(-n3nc(Nc4ccc(N5CCN(C(=O)C6CCOCC6)CC5)cc4)nc3N)ncn2)CC1 [Compound 41] |
| < 50 | < 50 | CC(=O)N1CCCN(c2cc(-n3nc(Nc4ccc(N5CCNCC5)cc4)nc3N)ncn2)CC1 [Compound 42] |
| < 50 | < 50 | CC(=O)N1CCCN(c2cc(-n3nc(Nc4ccc(N5CCN(C(=O)OC6CCOC6)CC5)cc4)nc3N)ncn2)CC1 (stereo not drawn) [Compound 43] |
| < 50 | < 50 | CC(=O)N1CCCN(c2cc(-n3nc(Nc4ccc(N5CCN(C(=O)C(C)C)CC5)cc4)nc3N)ncn2)CC1 [Compound 44] |
| < 50 |  | CC(=O)N1[C@H](C)CN(c2cc(-n3nc(Nc4ccc(NC(=O)O[C@@H]5C[C@@H](C)CC[C@@H]5C(C)C)cc4)nc3N)ncn2)C[C@@H]1C [Compound 83] |
